Where “and” joins values, the source holds several entries; their conditions need not be identical. Identical values can stand only once.
Legend:
[1] = combination vs MCC alone
[2] = viloxazine ER 900 mg/day from Day 3; Day 4; p values > 0.05
[3] = test system: CYP2B6; conditions: published in vitro study; cited from earlier work
[4] = test system: CYP2C8; conditions: in vitro study; cited from earlier work
[5] = test system: CYP2D6; conditions: cited from earlier work
[6] = cited from earlier work
[7] = viloxazine ER 900 mg qd, steady state
[8] = test system: CYP1A2; conditions: cited from earlier work
[9] = test system: CYP3A4; conditions: cited from earlier work
[10] = cited from earlier work; remark: listed apart in the source
[11] = test system: CYP2C9; conditions: in vitro study; cited from earlier work
[12] = test system: CYP2C19; conditions: in vitro study; cited from earlier work

Structure (SMILES) | prolongation of median Tmax with viloxazine ER vs MCC alone [1] [h] | attainment of steady state [2] | in vitro inhibition of CYP2B6 [3] | in vitro inhibition of CYP2C8 [4] | ki ([5]; in vitro, [dextromethorphan]) [µg/mL] | in vitro inhibition of CYP2D6 ([5]; published in vitro study) | change in Cmax when coadministered with paroxetine [6] | increase in AUC when coadministered with paroxetine [6] [%] | AUC24 higher in CYP2D6 PMs than EMs [7] | Cmax higher in CYP2D6 PMs than EMs [7] [%] | Cmin higher in CYP2D6 PMs than EMs [7] [%] | ki ([8]; in vitro, [caffeine]) [µg/mL] | in vitro inhibition of CYP1A2 ([8]; published in vitro study) | ki ([9]; in vitro, [midazolam]) [µg/mL] | in vitro inhibition of CYP3A4/5 ([9]; published in vitro study) | 5-hydoxyviloxazine metabolites, share of the metabolized fraction of the drug [10] | dose excreted unchanged [10] | in vitro inhibition of CYP2C9 [11] | in vitro inhibition of CYP2C19 [12]
COc1ccc2c(c1)[C@]13CCCC[C@@H]1[C@H](C2)N(C)CC3 [Dextromethorphan, dextromethorphan] | 1 |  |  |  |  |  |  |  |  |  |  |  |  |  |  |  |  |  | 
CCOc1ccccc1OCC1CNCCO1 (stereo not shown) [viloxazine] |  | second day of dosing | weak inhibitor | no meaningful inhibition | 12.7 | weak inhibitor | no changes | < 35 | 26% and 25% | 21 | 33 | 0.124 | strong, reversible inhibitor | 26.8 | weak inhibitor | about 50% | approximately 22% | no meaningful inhibition | no meaningful inhibition

Reference: paper PMC11088557 (Clinical Drug Investigation, 2024)
